Experimental data published in patent US20200197430A1, “Combination Therapy” (NuCana plc, priority 2017, published 2020).

Key:
[1] = PRO-001 (ProGem1) first-in-human phase I study, pharmacokinetics; assay type: in vivo; details: compared with gemcitabine
From the text: PRO-001 (aka ProGem1) was a first-in-human (FIH), phase I, open label, two stage study to investigate the safety, tolerability, clinical efficacy, pharmacokinetics (PK) and pharmacodynamics (PD) of NUC-1031 given in two parallel dosing schedules in subjects with advanced solid malignancies (EudraCT Number: 2011-005232-26). Subjects had the following tumour types at study entry: colorectal cancer (7 subjects), unknown primary (3), ovarian cancer (13), breast cancer (4), pancreatic cancer (9), cholangiocarcinoma (7), uterine or endometrial cancer (3), cervix cancer (2), lung cancer (6), mesothelioma (3) and thymus cancer (1). The study confirmed NUC-1031′s anti-tumour activity in patients with advanced progressive cancers, who have exhausted all standard therapeutic options, many of whom were resistant or refractory to prior nucleoside analogue therapy, including gemcitabine.

[2] = system: platinum sensitive recurrent ovarian cancer; details: cited from earlier work

| SMILES | levels of the potentially toxic metabolite dFdU released [1] | response rate [2] [%] | median PFS ([2]; median follow-up of 17 months) [months] |
| --- | --- | --- | --- |
| C[C@H](NP(=O)(OC[C@H]1O[C@@H](n2ccc(N)nc2=O)C(F)(F)[C@@H]1O)Oc1ccccc1)C(=O)OCc1ccccc1 (stereo partly drawn) [NUC-1031, 2′-Deoxy-2′,2′-difluoro-D-cytidine-5′-O-[phenyl (benzoxy-L-alaninyl)] phosphate] | lower levels | – | – |
| N.N.O=C([O-])C1(C(=O)[O-])CCC1.[Pt+2] [carboplatin] | – | 30.9 | 5.8 |
